# Patent US7371407B2, “Use of Emu Oil and its various fractions as a carrier for antifungal, antibacterial, and antiviral medications and preparations” (Ganeden Biotech, Inc., priority 1999, dated 2008)
# Key:
# [1] = topically-administered without dermal-penetrants; cited from earlier work
# [2] = system: opportunistic bacterial pathogens; assay: In vitro bacterial pathogen screen (DIFCO BACTROL Disk Set) on potato-dextrose plates; assay type: cell-based; settings: positive control, 18 hr at 30° C.
# Source text: The ability of Bacillus coagulans to inhibit various opportunistic bacterial pathogens was quantitatively ascertained by use of an in vitro assay. This assay is part of a standardized bacterial pathogen screen (developed by the U.S. Food and Drug Administration(FDA)) and is commercially available on solid support disks (DIFCO® BACTROL® Disk Set). To perform the assay, potato-dextrose plates (DIFCO®) were initially prepared using standard procedures. The plates were then individually inoculated with each of the bacteria (approximately 1.5×10^6 CFU) to be tested, so as to form a confluent bacterial bed.
# Inhibition by Bacillus coagulans was subsequently ascertained by placing approximately 1.5×10^6 CFU of Bacillus coagulans in 10 μl of broth or buffer, directly in the center of the potato-dextrose plate, with one test locus being approximately 8 mm in diameter per plate. A minimum of three test loci were used for each assay. The negative control consisted of a 10 μl volume of a sterile saline solution, whereas the positive control consisted of a 10 μl volume of glutaraldehyde. The plates were then incubated for approximately about 18 hr at 30° C., at which time the zones of inhibition were measured. […]
# [3] = system: four species of Candida; assay: In vitro inhibition assay on potato-dextrose plates, yeast pathogens; assay type: cell-based; settings: positive control, 18 hr at 30° C.
# Protocol: Each of the yeast pathogens and their ATCC accession numbers are illustrated in FIG. 5.
# In the in vitro inhibition assay, potato-dextrose plates (DIFCO®, Detroit, Mich.) were prepared using standard procedures and were inoculated individually with a confluent bed about 1.7×10^6 of the four species of Candida. Inhibition by Bacillus coagulans was tested by placing on the plate about 1.5×10^6 colony forming units (CFU) in 10 μl of broth or buffer, plated directly in the center of the potato-dextrose plate with one test locus of about 8 mm in diameter per plate. A minimum of three tests were performed for each inhibition assay. The negative control consisted of a 10 μl volume of a sterile saline solution, whereas the positive control consisted of a 1 μl volume of Miconazole cream.
# The plates were then incubated for approximately 18 hr at 30° C., at which time the zones of inhibition were measured. As designated herein, “excellent inhibition” means the zone was 10 mm or greater in diameter; and “good inhibition” means the zone was greater than 2 mm in diameter, but less than 10 mm in diameter.
# [4] = system: Trichophyton species; assay: In vitro inhibition assay on potato-dextrose plates, fungal pathogens; assay type: cell-based; settings: positive control, 18 hr at 30° C.
# Protocol: In the assay, potato-dextrose plates (DIFCO®, Detroit, Mich.) were prepared using standard procedures and were inoculated individually with a confluent bed (about 1.7×10^6) of various species of the fungus Trichophyton. The tested fungal strains of Trichophyton species (available from the American Type Culture Collection (ATCC; Rockville, Md.)) and their ATCC accession numbers, as well as the results of in vitro inhibition by Bacillus coagulans are illustrated in FIG. 4.
# Inhibition by Bacillus coagulans was ascertained by placing on the plate approximately 1.5×10^6 colony forming units (CFU) in 10 μl of broth or buffer, plated directly in the center of the potato-dextrose plate, with one test locus per plate. The size of each test locus was approximately 8 mm in diameter and a minimum of three tests were performed for each inhibition assay. The negative control consisted of a […] of sterile saline solution, whereas the positive control consisted of a […] 2% Miconazole (1-[2-(2,4-dichlorophenyl)-2-[(2,4-dichlorophenyl)methoxylmethyl-1,11-imidazole within an inert cream.
# The plates were then incubated for approximately 18 hr at 30° C., at which time the zones of inhibition were measured. […]
compound,measurement,setting,value
CC(C(=O)O)c1cccc(C(=O)c2ccccc2)c1 (stereo not shown) [Ketoprofen],"adsorption through viable, keritinized dermal tissue",[1],"very limited concentration, if at all"
O=CCCCC=O [glutaraldehyde],"zone of inhibition, diameter","[2]; 10 μl, average of three tests",approximately 16.2 mm
same,inhibition class,[2],excellent (“excellent inhibition” means the zone was 10 mm or greater in diameter)
Clc1ccc(COC(Cn2ccnc2)c2ccc(Cl)cc2Cl)c(Cl)c1 (stereo not shown) [Miconazole],"zone of inhibition, diameter","[3]; cream, average of three tests",approximately 8.7 mm
same,inhibition class,[3],"good (“good inhibition” means the zone was greater than 2 mm in diameter, but less than 10 mm in diameter)"
same,"zone of inhibition, diameter","[4]; 2% in inert cream, mean average of three tests",approximately 8.5 mm
same,inhibition class,[4],"good (“good inhibition” means the zone was greater than 2 mm in diameter, but less than 10 mm in diameter)"
